Data: patent US20130022645A1, “PHARMACEUTICAL FORMULATIONS OF BISPHOSPHONATE WITH ENHANCED ORAL BIOAVAILABILITY” (DONG-A PHARM. CO., LTD., priority 2011, published 2013)
Entries after “also recorded” stand apart in the source; their conditions may differ.

Key:
[1] = In vitro inhibitory activity of phytic acid and EDTA against complexation of bisphosphonate with calcium (residual risedronate in solution by HPLC); assay type: physicochemical; details: for Inhibition of calcium-risedronate complexation: Tables 2 to 4, FIGS. 1 to 3
Experimental: Herein, in vitro tests in which after bisphosphonate and a chelating agent were simultaneously added to a solution containing a predetermined amount of calcium ions, correlation between time and residual bisphosphonate in the solution was determined were performed as explained in the following Reference Examples.
Various 50 mL solutions containing 50 mg, 10 mg and 5 mg of calcium in combination with 50 mg and 100 mg of EDTA, or […] as a chelating agent were prepared and used respectively in Reference Examples 1 to 15.
The mechanism in which a chelating agent facilitates the absorption of bisphosphonate can be explained as the degree to which the chelating inhibits bisphosphonate's activity of reacting with minerals (calcium, magnesium, etc.) in the gastrointestinal tract to form insoluble complexes. Thus, in vitro tests for assaying the inhibitory activity of phytic acid or EDTA against the complexation of bisphosphonate in calcium-containing solutions were conducted in Reference Test Example 1.
In a container with a cap, 25 mL of each of the solutions prepared in Reference Example 1 to 15 was placed, followed by agitation at 100 rpm for 120 min in an agitation bath maintained at 37° C. Approximately 1 mL of each of the solutions was taken at time points (immediately after preparation, and 15, 30, 60, 90 and 120 min after agitation) and allowed to pass through 0.45 μm PVDF membrane filters to remove precipitates. Residual resedronate in the solutions was quantitatively analyzed by HPLC.

intestinal mucosa = details: rabbits; cited from earlier work

SMILES	Inhibition of calcium-risedronate complexation [1]	Effect on intestinal mucosa (intestinal mucosa)	Inhibitory activity against complexation compared with EDTA ([1]; in vitro tests)	Amount of phytic acid relative to EDTA needed for the same inhibition of calcium-risedronate complexation ([1]; in vitro, Reference Examples 6 to 10)
O=C(O)CN(CCN(CC(=O)O)CC(=O)O)CC(=O)O [EDTA]	inhibit calcium-risedronate complexation in a dose-dependent manner	irritate the intestinal mucosa		
O=P(O)(O)O[C@H]1[C@H](OP(=O)(O)O)[C@@H](OP(=O)(O)O)[C@H](OP(=O)(O)O)[C@@H](OP(=O)(O)O)[C@H]1OP(=O)(O)O [phytic acid, inositol hexakisphosphate]	inhibit calcium-risedronate complexation in a dose-dependent manner		poorer in inhibitory activity against complexation than was EDTA	at least twice the amount of EDTA; also recorded: twice as large as that of EDTA
